# Laboratory results: patent US20040192640A1, “Use of sucralfate for the treatment of cervical erosion” (priority 2004, published 2004)
# Key:
# [1] = tested on: cervical erosion; assay: Clinical test of topical intravaginal sucralfate gel for cervical erosion (colposcopic examination, signs and symptoms); type: in vivo, women; conditions: after six weeks of treatment (so in the source); both formulations together
# From the text: Based on the observed colposcopic picture of the situation and on the seriousness of the possible accompanying inflammation state the patients under test have been classified according to a conventional classification of the cervical pathology, according to the following grade scheme.
# Grade I: simple cervicitis; presence of mosaic-shaped lesions and ectopia; reduced leuconrhea and absence of dyspareunia (abnormal pain during sexual intercourse);
# Grade II: cervicitis with extended erosion of the portio (30% of the surface); presence of altered epithelium; occasional blood discharge and occasional dyspareunia;
# Grade III: cervicitis with extended erosion of the portio (50% of the surface); presence of ectopia; frequent blood discharge; leucorrhea and dyspareunia.
# The 18 women, after final diagnosis, were divided into two test groups of nine patients each, in order to evaluate the effectiveness of the treatment according to the invention in two different formulations. The first formulation, continuing sucralfate at a concentration of 25% by weight as well as polycarbophil as a mucoadhesive/bioadhesive ingredient, corresponds to the preparation referred to above as Formulation 2, while the second formulation under test containing sucralfate at a concentration of 12.5% by weight as well as polycarbophil, corresponds to the Formulation 3. […]
# [2] = tested on: duodenal ulcer; conditions: oral dose of 1 g four times daily, for 4-8 weeks; cited from earlier work
# [3] = tested on: NSAID-induced ulceration; conditions: cited from earlier work
substance,measurement,setting,value
β-D-fructofuranosyl-α-D-glucopyranoside octakis(hydrogen sulfate) aluminium complex [sucralfate],Patients considered on complete recovery,[1],16 patients out of 18
same,Clinical effectiveness (cases),[2],75 % of cases
same,"Effectiveness in NSAID-induced ulceration, duodenal localizations",[3]; duodenal localizations,effective
same,"Effect in NSAID-induced ulceration, gastric lesions",[3]; when gastric lesions are present,only a symptomatic and non-reparative effect
